Literature values as cited in US8808764B2, “Methods and compositions for increasing growth hormones” (Quality IP Holdings, Inc., priority 2012, dated 2014).

Experiments:
[1] = test system: hGH
[2] = test system: GH; conditions: subcutaneous injection of 0.06 IU in GH deficient subjects

Compound | elevation of serum hGH levels ([1]; 30 g, intravenous, in males) [fold] | increase in hGH levels ([1]; intravenous infusion of 183 mg/kg body weight in females) [fold] | mean level of GH reached [2] [ng/mL]
N=C(N)NCCC[C@H](N)C(=O)O [arginine] | 8.6 | ≥ 20 | 
HGH: human growth hormone given by subcutaneous injection to GH deficient subjects |  |  | 0.4
